From the NIST ThermoML archive (doi:10.1016/j.fluid.2007.03.021)
± gives the expanded uncertainty stated by the source.

Details: Liquid

viscosity (298.15 K, 101.33 kPa, Capillary tube (Ostwald / Ubbelohde) method): 1.082 ± 0.009 mPa·s
Normal boiling temperature (Ebulliometric method (Recirculating still)): 78.28 ± 0.05 °C
Structure (SMILES): CCO [ethanol]
